From ChEMBL document CHEMBL3588784, “Design of selective PI3Kα inhibitors starting from a promiscuous pan kinase scaffold” (Bioorg Med Chem Lett, 2015)

Tests used:
[1] = target: T1, Phosphatidylinositol 4,5-bisphosphate 3-kinase catalytic subunit beta isoform (Homo sapiens, UniProt P42338); experiment: Inhibition of recombinant human PI3Kbeta using PIP2/ATP as substrate preincubated for 20 mins followed by substrate addition measured after 80 mins by Kinase-Glo plus assay
[2] = target: Vascular endothelial growth factor receptor 2 (Homo sapiens, UniProt P35968); experiment: Inhibition of KDR (unknown origin)
[3] = Octanol/buffer partition co-efficient, log D of the compound at pH 7.4 after 30 mins by shake-flask method; format: physicochemical
[4] = target: T1, Phosphatidylinositol 4,5-bisphosphate 3-kinase catalytic subunit beta isoform; experiment: Inhibition of PI3Kbeta in human MDA-MB-468 cells assessed as inhibition of Akt phosphorylation at Ser-473 after 2 hrs by ELISA; format: cell-based
[5] = target: T2, Phosphatidylinositol 4,5-bisphosphate 3-kinase catalytic subunit alpha isoform (Homo sapiens, UniProt P42336); experiment: Inhibition of PI3Kalpha in human BT474 cells assessed as inhibition of Akt phosphorylation at […] after 2 hrs by ELISA; format: cell-based, BT-474
[6] = target: T2, Phosphatidylinositol 4,5-bisphosphate 3-kinase catalytic subunit alpha isoform; experiment: Inhibition of recombinant human PI3Kalpha using PIP2/ATP as substrate preincubated for 20 mins followed by substrate addition measured after 80 mins by Kinase-Glo plus assay
[7] = target: Dual specificity tyrosine-phosphorylation-regulated kinase 1A (Homo sapiens) (UniProt Q13627); experiment: Inhibition of DYRK1A (unknown origin) at 1 uM preincubated for 5 mins with enzyme and substrate followed by ATP addition relative to control
[8] = target: Glycogen synthase kinase-3 beta (Homo sapiens) (UniProt P49841); experiment: Inhibition of GSK-3beta (unknown origin) at 1 uM preincubated for 5 mins with enzyme and substrate followed by ATP addition relative to control
[9] = target: Phosphatidylinositol 4,5-bisphosphate 3-kinase catalytic subunit gamma isoform (Homo sapiens, UniProt P48736); experiment: Inhibition of recombinant human PI3Kgamma using PIP2/ATP as substrate preincubated for 20 mins followed by substrate addition measured after 80 mins by Kinase-Glo plus assay
[10] = target: Receptor-interacting serine/threonine-protein kinase 2 (Homo sapiens) (UniProt O43353); experiment: Inhibition of RIPK2 (unknown origin) at 1 uM preincubated for 5 mins with enzyme and substrate followed by ATP addition relative to control
[11] = target: T3, Phosphatidylinositol 4,5-bisphosphate 3-kinase catalytic subunit delta isoform (Homo sapiens, UniProt O00329); experiment: Inhibition of recombinant human PI3Kdelta using PIP2/ATP as substrate preincubated for 20 mins followed by substrate addition measured after 80 mins by Kinase-Glo plus assay
T3 sequence (O00329 whole entry): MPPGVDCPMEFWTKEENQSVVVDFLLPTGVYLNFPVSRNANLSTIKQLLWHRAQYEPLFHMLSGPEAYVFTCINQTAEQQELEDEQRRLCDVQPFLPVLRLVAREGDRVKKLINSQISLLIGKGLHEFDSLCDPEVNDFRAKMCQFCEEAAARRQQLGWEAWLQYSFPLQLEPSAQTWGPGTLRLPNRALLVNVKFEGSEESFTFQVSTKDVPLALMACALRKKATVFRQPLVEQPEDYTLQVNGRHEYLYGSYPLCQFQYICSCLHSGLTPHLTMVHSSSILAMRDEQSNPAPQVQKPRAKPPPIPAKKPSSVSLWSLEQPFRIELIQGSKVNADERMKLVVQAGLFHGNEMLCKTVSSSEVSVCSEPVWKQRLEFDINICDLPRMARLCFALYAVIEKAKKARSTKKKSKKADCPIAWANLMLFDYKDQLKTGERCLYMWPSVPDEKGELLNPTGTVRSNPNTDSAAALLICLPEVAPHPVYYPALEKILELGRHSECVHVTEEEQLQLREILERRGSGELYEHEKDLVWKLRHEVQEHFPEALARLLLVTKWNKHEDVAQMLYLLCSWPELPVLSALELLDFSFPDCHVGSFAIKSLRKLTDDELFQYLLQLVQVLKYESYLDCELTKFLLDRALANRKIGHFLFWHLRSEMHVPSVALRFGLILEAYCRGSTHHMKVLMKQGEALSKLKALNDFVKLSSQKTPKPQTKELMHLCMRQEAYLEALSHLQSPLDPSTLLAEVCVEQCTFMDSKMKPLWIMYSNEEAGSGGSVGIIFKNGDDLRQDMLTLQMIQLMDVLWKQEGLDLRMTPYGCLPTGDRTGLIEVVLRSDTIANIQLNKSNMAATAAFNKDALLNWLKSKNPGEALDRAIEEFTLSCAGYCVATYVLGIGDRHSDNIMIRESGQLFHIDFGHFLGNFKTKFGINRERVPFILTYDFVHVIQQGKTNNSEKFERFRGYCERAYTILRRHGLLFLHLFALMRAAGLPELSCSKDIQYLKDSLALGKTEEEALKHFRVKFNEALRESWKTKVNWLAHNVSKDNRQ

[12] = target: Serine/threonine-protein kinase mTOR (Homo sapiens, UniProt P42345); experiment: Inhibition of m-TOR (unknown origin)

Vascular endothelial growth factor receptor 2, sequence (P35968 whole entry): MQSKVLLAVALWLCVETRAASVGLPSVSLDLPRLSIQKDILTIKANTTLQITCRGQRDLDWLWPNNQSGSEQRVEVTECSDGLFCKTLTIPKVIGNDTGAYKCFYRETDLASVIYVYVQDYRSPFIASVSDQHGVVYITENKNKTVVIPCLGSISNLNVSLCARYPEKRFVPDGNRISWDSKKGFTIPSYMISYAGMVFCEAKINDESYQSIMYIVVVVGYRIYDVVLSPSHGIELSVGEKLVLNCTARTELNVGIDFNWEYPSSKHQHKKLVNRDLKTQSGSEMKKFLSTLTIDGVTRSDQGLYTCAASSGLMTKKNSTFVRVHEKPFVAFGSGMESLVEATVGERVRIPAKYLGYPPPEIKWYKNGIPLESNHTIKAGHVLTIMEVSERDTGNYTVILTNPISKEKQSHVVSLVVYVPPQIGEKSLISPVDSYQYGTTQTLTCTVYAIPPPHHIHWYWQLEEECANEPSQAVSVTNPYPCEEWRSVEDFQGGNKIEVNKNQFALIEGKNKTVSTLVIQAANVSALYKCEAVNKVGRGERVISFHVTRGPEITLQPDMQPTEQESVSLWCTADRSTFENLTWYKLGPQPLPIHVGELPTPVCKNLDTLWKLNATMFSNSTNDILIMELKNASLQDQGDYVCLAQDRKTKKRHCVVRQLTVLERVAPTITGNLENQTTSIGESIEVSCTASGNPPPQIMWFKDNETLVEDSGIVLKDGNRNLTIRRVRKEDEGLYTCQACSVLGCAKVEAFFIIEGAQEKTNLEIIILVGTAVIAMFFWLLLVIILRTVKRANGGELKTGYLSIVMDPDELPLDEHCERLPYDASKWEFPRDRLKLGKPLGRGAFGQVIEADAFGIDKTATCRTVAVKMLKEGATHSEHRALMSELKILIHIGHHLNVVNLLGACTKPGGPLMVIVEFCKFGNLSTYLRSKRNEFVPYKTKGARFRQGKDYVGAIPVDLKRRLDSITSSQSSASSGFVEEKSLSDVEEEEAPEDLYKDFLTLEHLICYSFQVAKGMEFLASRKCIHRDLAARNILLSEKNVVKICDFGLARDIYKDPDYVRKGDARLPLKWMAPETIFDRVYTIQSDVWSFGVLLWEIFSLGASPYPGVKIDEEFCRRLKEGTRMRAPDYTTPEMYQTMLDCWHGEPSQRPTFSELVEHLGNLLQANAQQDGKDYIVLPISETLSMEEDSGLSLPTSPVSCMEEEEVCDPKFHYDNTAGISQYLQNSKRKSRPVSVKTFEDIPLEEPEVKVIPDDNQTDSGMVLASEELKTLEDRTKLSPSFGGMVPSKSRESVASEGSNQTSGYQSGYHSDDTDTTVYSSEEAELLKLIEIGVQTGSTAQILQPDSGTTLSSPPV
T2 sequence (P42336 whole entry, canonical isoform): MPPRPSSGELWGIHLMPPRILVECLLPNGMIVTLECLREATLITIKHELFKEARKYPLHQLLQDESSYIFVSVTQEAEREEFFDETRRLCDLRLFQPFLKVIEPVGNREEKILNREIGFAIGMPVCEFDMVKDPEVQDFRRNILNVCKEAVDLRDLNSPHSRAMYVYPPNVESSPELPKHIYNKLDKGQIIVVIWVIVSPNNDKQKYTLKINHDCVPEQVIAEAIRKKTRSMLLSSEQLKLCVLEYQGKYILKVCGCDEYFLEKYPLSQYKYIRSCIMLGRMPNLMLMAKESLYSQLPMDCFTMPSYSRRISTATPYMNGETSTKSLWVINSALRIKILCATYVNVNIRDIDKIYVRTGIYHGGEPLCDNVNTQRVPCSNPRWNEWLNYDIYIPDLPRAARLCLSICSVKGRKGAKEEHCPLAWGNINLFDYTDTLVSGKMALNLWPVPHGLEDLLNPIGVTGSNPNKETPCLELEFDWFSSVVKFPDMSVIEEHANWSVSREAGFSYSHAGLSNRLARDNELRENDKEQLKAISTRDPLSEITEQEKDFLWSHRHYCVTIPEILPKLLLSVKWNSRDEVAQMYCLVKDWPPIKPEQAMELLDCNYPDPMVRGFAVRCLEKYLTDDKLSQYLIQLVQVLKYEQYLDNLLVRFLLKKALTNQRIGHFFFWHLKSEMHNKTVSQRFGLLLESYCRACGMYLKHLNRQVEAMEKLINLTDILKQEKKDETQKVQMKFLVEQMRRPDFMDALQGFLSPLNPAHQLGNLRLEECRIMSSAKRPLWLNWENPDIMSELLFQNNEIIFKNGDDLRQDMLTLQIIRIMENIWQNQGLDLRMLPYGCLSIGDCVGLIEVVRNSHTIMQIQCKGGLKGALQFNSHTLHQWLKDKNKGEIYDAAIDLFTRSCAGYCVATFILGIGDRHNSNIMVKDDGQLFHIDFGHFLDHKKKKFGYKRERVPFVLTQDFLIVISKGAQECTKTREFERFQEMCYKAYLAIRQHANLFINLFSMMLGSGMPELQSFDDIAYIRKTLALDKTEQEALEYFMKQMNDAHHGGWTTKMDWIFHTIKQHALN
T1 sequence (P42338 whole entry, canonical isoform): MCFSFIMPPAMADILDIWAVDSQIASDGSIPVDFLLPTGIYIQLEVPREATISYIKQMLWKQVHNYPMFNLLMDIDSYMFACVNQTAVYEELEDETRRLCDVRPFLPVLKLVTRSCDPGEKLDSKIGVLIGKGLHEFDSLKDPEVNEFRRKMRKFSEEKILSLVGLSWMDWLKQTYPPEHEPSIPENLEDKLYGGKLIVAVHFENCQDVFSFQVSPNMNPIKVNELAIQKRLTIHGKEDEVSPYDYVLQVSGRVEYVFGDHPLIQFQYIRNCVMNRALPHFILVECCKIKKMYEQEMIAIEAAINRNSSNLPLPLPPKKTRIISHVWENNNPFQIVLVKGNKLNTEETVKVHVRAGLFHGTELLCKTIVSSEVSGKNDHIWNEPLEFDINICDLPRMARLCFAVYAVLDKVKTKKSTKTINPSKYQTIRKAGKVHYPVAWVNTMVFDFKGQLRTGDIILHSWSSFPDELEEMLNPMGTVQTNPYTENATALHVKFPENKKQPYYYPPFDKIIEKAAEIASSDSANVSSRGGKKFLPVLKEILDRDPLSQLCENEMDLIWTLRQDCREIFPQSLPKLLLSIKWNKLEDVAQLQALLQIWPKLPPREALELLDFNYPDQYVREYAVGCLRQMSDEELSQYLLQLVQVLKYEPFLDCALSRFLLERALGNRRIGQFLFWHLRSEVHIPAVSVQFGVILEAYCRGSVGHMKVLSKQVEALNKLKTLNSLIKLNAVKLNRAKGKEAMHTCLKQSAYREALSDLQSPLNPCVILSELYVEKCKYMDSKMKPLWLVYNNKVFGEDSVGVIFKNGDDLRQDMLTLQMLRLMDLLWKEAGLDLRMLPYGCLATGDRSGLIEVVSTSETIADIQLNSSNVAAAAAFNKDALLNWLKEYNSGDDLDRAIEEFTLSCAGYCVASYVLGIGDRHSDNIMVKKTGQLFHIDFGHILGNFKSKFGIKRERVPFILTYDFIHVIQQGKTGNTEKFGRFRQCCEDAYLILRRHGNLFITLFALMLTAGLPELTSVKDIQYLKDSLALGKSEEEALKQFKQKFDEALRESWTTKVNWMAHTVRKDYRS
Phosphatidylinositol 4,5-bisphosphate 3-kinase catalytic subunit gamma isoform, sequence (P48736 whole entry, canonical isoform): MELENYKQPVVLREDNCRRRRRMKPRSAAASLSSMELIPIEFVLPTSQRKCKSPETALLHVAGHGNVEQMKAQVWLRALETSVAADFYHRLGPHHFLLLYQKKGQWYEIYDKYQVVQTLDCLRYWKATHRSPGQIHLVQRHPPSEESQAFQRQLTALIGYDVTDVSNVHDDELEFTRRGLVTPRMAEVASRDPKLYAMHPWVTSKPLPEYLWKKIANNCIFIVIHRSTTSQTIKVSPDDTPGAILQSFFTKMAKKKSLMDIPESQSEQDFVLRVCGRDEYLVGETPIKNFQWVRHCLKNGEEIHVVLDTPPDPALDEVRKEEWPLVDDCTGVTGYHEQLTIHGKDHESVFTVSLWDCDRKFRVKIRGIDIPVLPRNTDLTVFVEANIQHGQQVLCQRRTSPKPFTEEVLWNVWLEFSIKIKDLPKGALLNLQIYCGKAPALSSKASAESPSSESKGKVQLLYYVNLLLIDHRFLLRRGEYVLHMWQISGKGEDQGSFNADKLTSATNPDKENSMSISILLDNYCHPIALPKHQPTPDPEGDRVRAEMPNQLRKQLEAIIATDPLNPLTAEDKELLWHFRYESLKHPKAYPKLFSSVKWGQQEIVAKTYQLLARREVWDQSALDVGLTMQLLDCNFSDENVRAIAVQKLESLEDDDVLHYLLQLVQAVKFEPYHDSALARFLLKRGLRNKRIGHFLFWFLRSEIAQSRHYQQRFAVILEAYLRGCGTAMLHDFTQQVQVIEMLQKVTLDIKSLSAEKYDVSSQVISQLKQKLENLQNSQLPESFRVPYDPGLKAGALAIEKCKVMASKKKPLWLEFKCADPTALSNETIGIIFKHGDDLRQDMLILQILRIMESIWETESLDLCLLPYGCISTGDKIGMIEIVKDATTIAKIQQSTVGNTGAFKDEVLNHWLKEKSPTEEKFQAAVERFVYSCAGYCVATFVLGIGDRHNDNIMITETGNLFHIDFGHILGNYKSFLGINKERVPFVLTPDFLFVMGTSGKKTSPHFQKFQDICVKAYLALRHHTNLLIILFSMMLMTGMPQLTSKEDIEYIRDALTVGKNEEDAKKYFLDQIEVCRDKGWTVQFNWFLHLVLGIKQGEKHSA
Glycogen synthase kinase-3 beta (Homo sapiens), sequence (P49841 whole entry, looked up, canonical isoform): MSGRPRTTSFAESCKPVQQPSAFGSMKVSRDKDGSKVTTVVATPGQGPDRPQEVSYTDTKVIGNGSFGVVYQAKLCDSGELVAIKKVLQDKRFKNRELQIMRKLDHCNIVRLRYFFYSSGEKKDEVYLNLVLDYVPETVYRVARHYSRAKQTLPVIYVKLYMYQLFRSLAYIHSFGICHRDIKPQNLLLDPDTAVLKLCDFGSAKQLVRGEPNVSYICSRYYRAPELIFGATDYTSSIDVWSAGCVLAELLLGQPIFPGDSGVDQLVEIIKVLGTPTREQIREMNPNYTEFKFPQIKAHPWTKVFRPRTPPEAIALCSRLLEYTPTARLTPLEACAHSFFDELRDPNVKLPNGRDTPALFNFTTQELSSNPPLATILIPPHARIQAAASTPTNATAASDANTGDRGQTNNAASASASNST

| Compound | IC50 [1] [µM] | IC50 [2] [µM] | logD at 0.5 h [3] | IC50 [4] [µM] | IC50 [5] [µM] | IC50 [6] [µM] | inhibition [7] [%] | inhibition [8] [%] | IC50 [9] [µM] | inhibition [10] [%] | IC50 [11] [µM] | IC50 [12] [µM] |
| --- | --- | --- | --- | --- | --- | --- | --- | --- | --- | --- | --- | --- |
| CN(C)CC(=O)N1CCC(c2cn(C)c(-c3cnc(N)c(-n4nnc5ccccc54)n3)n2)CC1 | 1.3 | 6.6 | 1.3 | 7.9 | 0.69 | 0.064 | – | – | – | – | – | – |
| CN(C)CC(=O)N1CCC(c2nc(-c3cnc(N)c(-n4nnc5ccccc54)n3)nn2C)CC1 | 2.4 | 1.2 | 1 | 12 | 3.9 | 0.28 | – | – | – | – | – | – |
| CN(C)CC(=O)N1CCC(c2cc(-c3cnc(N)c(-n4nnc5ccccc54)n3)n(C)n2)CC1 | 0.38 | 0.09 | 1.8 | 4.3 | 0.091 | 0.006 | – | – | – | – | – | – |
| CN(C)CC(=O)N1CCC(c2nc(-c3cnc(N)c(-n4nnc5ccccc54)n3)n(C)n2)CC1 | 1 | 9 | 0.9 | 6.9 | 0.27 | 0.029 | 60 | 60 | 0.65 | 60 | 0.017 | 21 |
| CN(C)CC(=O)N1CCC(n2ccc(-c3cnc(N)c(-n4nnc5ccccc54)n3)n2)CC1 | 1.7 | 0.17 | 1.8 | 10 | 0.25 | 0.027 | – | – | – | – | – | – |
| CN(C)CC(=O)N1CCC(n2cc(-c3cnc(N)c(-n4nnc5ccccc54)n3)cn2)CC1 | 0.9 | 0.029 | 1.7 | 13 | 0.058 | 0.016 | – | – | 0.28 | – | 0.02 | 15 |
| CN(C)CC(=O)N1CCC(n2ncc(-c3cnc(N)c(-n4nnc5ccccc54)n3)n2)CC1 | 0.65 | 0.21 | 1.9 | 7.8 | 0.14 | 0.021 | – | – | – | – | – | – |
